Results: ChEMBL document CHEMBL5584231, “Rational design of a new short anticancer peptide with good potential for cancer treatment” (Eur J Med Chem, 2024)
Calls of active or inactive are those of the source. No cut-off for these calls is given here. Non-standard residues stand in square brackets, D forms with d. Residues, ends and D or L forms follow the SMILES beside them. Aad = N[C@@H](CCCC(=O)O)C(=O)O

How the values were obtained:
[1] = Acute toxicity in female Balb/c mouse assessed as shrinking cytoplasm in kidney at approximately LD50 administered as single ip dose by H and E staining based analysis; type: organism-based; conditions: in vivo
[2] = Stability in mouse serum assessed as compound remaining at 10 mM incubated for 6 hrs by RP-HPLC analysis; type: ADME, cell-free; conditions: read-out: Stability
[3] = Toxicity in female Balb/c mouse implanted with mouse 4T1 cells assessed as reduction in body weight at 12 micromol/kg, ip administered every other day for 2 weeks and measured every 2 days; type: organism-based; conditions: in vivo, 336 h, dose 12 µmol/kg
[4] = Therapeutic index, ratio of HC10 for mouse RBC to IC50 for cytotoxicity against human MCF7 cells; type: toxicity, cell-based; conditions: mouse RBC and MCF7 cells, read-out: TI
4T1 [5] = assay: Antitumor activity against mouse 4T1 cells implanted in female Balb/c mouse assessed as increase in tumor cell necrosis at 12 micromol/kg, ip administered every other day for 2 weeks by H and E staining based analysis; type: functional, organism-based; conditions: dose 12.0 µmol/kg
[6] = Toxicity in female Balb/c mouse implanted with mouse 4T1 cells assessed as animal death at 12 micromol/kg, ip administered every other day for 2 weeks; type: organism-based; conditions: in vivo, 336 h, dose 12 µmol/kg
MCF7 [7] = assay: Cytotoxicity against human MCF7 cells assessed as reduction in cell survival at 0.5 to 1 times IC50 incubated for 24 hrs in presence of 1 uM paclitaxel by MTT assay; type: functional, cell-based
Cell membrane [8] = assay: Disruption of cell membrane integrity in human MCF7 cells assessed as increase in PI fluorescence measured after 1 hr by laser confocal scanning microscopic analysis; type: cell membranes
Cell membrane [9] = assay: Disruption of cell membrane integrity in human MCF7 cells assessed as increase in PI fluorescence at 2 times IC50 measured after 0 to 120 mins by laser confocal scanning microscopic analysis; type: cell membranes; conditions: time 0-120 min
[10] = Acute toxicity in female Balb/c mouse assessed as reduction in survival rate at 37 to 55 mg/kg, ip administered as single dose and measured for 7 days; type: organism-based; conditions: in vivo, 168 h, dose 37-55 mg/kg, time 7 day
[11] = Cytotoxicity against HK-2 cells assessed as inhibition of cell growth incubated for 1 hr by MTT assay; type: toxicity, cell-based; conditions: human
Cell membrane [12] = assay: Disruption of cell membrane in human MCF7 cells assessed as LDH release at 2.5 to 40 uM incubated for 1 hr by fluorescence based microplate reader analysis; type: cell membranes; conditions: dose 2.5-40 µM
[13] = Acute toxicity in female Balb/c mouse assessed as necrosis in kidney at approximately LD50 administered as single ip dose by H and E staining based analysis; type: organism-based; conditions: in vivo
Cell membrane [14] = assay: Induction of morphological changes in cell membrane of human MCF7 cells assessed as intracellular outflow at 1 times IC50 incubated for 1 hr by SEM analysis; type: cell membranes
MCF7 [15] = assay: Induction of apoptosis in human MCF7 cells assessed as late apoptotic cells at 1 times IC50 measured after 24 hrs by Annexin V-FITC staining based flow cytometry analysis (reference value: 1.60%); type: functional
[16] = Therapeutic index, ratio of HC10 for mouse RBC to IC50 for cytotoxicity against human HeLa cells; type: toxicity, cell-based; conditions: mouse RBC and HeLa cells, read-out: TI
[17] = Acute toxicity in female Balb/c mouse assessed as reduction in survival rate at 37 mg/kg, ip administered as single dose and measured for 7 days; type: organism-based; conditions: in vivo, 168 h, time 7 day
MCF7 [18] = assay: Cytotoxicity against human MCF7 cells assessed as cell death at 1 times IC50 measured within 30 mins by MTT assay relative to control; type: functional; conditions: 0.5 h
[19] = Drug uptake in HK-2 cells at 5 uM incubated for 1 hr by laser confocal scanning microscopic analysis; type: ADME, cell-based; conditions: human, hk-2, 1 h
[20] = Acute toxicity in female Balb/c mouse assessed as reduction in survival rate at 50 mg/kg, ip administered as single dose and measured for 7 days; type: organism-based; conditions: in vivo, 168 h, time 7 day
[21] = Acute toxicity in female Balb/c mouse assessed as reduction in survival rate at 65 to 110 mg/kg, ip administered as single dose and measured for 7 days; type: organism-based; conditions: in vivo, 168 h, dose 65-110 mg/kg, time 7 day
4T1 [22] = assay: Antitumor activity against mouse 4T1 cells implanted in female Balb/c mouse assessed as increase in tumor cell lysis at 12 micromol/kg, ip administered every other day for 2 weeks by H and E staining based analysis; type: functional, organism-based; conditions: dose 12.0 µmol/kg
[23] = Acute toxicity in female Balb/c mouse assessed as reduction in survival rate at 82 to 130 mg/kg, ip administered as single dose and measured for 7 days; type: organism-based; conditions: in vivo, 168 h, dose 82-130 mg/kg, time 7 day
[24] = Acute toxicity in female Balb/c mouse assessed as reduction in survival rate at 65 mg/kg, ip administered as single dose and measured for 7 days; type: organism-based; conditions: in vivo, 168 h, time 7 day
4T1 [25] = assay: Antitumor activity against mouse 4T1 cells implanted in female Balb/c mouse assessed as nucleus contraction at 12 micromol/kg, ip administered every other day for 2 weeks by H and E staining based analysis; type: functional, organism-based; conditions: dose 12.0 µmol/kg

| Compound | remaining at 6 h, 10000 µM [2] [%] | Activity [3] | selectivity ratio [4] | Activity (4T1 [5]) | Activity [6] | Activity (MCF7 [7]) | Activity (Cell membrane [8]) | Activity (Cell membrane [9]) | IC50 at 1 h [11] [µM] | Activity (Cell membrane [12]) | Activity (Cell membrane [14]) | Activity (MCF7 [15]) [%] | selectivity ratio [16] | Activity (MCF7 [18]) [%] | Drug uptake [19] | other results |
| --- | --- | --- | --- | --- | --- | --- | --- | --- | --- | --- | --- | --- | --- | --- | --- | --- |
| CC(C)C[C@H](NC(=O)[C@H](CC(C)C)NC(=O)[C@H](CCCCN)NC(=O)[C@H](CCCCN)NC(=O)[C@H](CC(C)C)NC(=O)[C@H](CC(C)C)NC(=O)[C@H](CCCCN)NC(=O)[C@H](CCCCN)NC(=O)[C@H](CC(C)C)NC(=O)[C@H](CC(C)C)NC(=O)[C@H](CCCCN)NC(=O)[C@H](CCCCN)NC(=O)[C@H](CC(C)C)NC(=O)[C@@H](N)CC(C)C)C(N)=O (H-LLKKLLKKLLKKLL-NH2) | > 60 | Non-Toxic | 2.27 | Active | Non-Toxic | Active | Dose-Dependent Effect | Active | 5.4 | Active | Active | 19.2 | 1.83 | ~50 | Active | Activity [1]: Toxic; Activity [10]: Toxic; Activity [13]: Toxic; Activity [17]: Non-Toxic |
| CC(C)C[C@H](NC(=O)[C@H](CCCCN)NC(=O)[C@H](CCCCN)NC(=O)[C@H](CC(C)C)NC(=O)[C@H](CC(C)C)NC(=O)[C@H](CCCCN)NC(=O)[C@H](CCCCN)NC(=O)[C@H](CC(C)C)NC(=O)[C@H](CC(C)C)NC(=O)[C@H](CCCCN)NC(=O)[C@H](CCCCN)NC(=O)[C@H](CC(C)C)NC(=O)[C@@H](N)CC(C)C)C(=O)N[C@@H](CCC(=O)O)C(N)=O (H-LLKKLLKKLLKKLE-NH2) | > 60 | Non-Toxic | 14.2 | Active | Non-Toxic | Active | Dose-Dependent Effect | Active | 59.3 | Active | Active | 19.1 | 32.1 | ~50 | Not Active | Activity [20]: Non-Toxic; Activity [21]: Toxic |
| CC(C)C[C@H](NC(=O)[C@H](CCCCN)NC(=O)[C@H](CCCCN)NC(=O)[C@H](CC(C)C)NC(=O)[C@H](CC(C)C)NC(=O)[C@H](CCCCN)NC(=O)[C@H](CCCCN)NC(=O)[C@H](CC(C)C)NC(=O)[C@H](CC(C)C)NC(=O)[C@H](CCCCN)NC(=O)[C@H](CCCCN)NC(=O)[C@H](CC(C)C)NC(=O)[C@@H](N)CC(C)C)C(=O)N[C@@H](CCCC(=O)O)C(N)=O (H-LLKKLLKKLLKKL[Aad]-NH2) | > 60 | Non-Toxic | 16.3 | Active | Non-Toxic | Active | Dose-Dependent Effect | Active | 38.7 | Active | Active | 13.8 | 35.7 | ~50 | Not Active | Activity (4T1 [22]): Active; Activity [23]: Toxic; Activity [24]: Non-Toxic; Activity (4T1 [25]): Active |
